Test results taken from patent publication US12540143B2, “Methods and compositions for targeted protein degradation” (Ranok Therapeutics (Hangzhou) Co. Ltd., priority 2019, dated 2026).

What follows are compounds tested on MV4-11 cells (assay: MV4-11 Cytotoxicity Assay). Conditions: Homo sapiens, MV4-11; 72 hr, CCK-8; read-out: MV4-11 cytotoxicity.
Type: cell-based, human

Structure (SMILES)	IC50 [nM]
Cc1sc2c(c1C)C(c1ccc(Cl)cc1)=N[C@@H](CC(=O)NCCc1ccc(CN3CCC(Cc4ccc(-n5c(O)nnc5-c5cc(C(C)C)c(O)cc5O)cc4)CC3)cc1)c1nnc(C)n1-2 [Compound 98, (S)-2-(4-(4-chlorophenyl)-2,3,9-trimethyl-6H-thieno[3,2-f][1,2,4]triazolo[4,3-a][1,4]diazepin-6-yl)-N-(4-((4-(4-(3-(2,4-dihydroxy-5-isopropylphenyl)-5-hydroxy-4H-1,2,4-triazol-4-yl)benzyl)piperidin-1-yl)methyl)phenethyl)acetamide, trifluoroacetic acid]	< 100
Cc1sc2c(c1C)C(c1ccc(Cl)cc1)=N[C@@H](CC(=O)N(C)CCOc1ccc(CN(C)Cc3ccc(-n4c(O)nnc4-c4cc(C(C)C)c(O)cc4O)cc3)cc1)c1nnc(C)n1-2 [Compound 99, (S)-2-(4-(4-chlorophenyl)-2,3,9-trimethyl-6H-thieno[3,2-f][1,2,4]triazolo[4,3-a][1,4]diazepin-6-yl)-N-(2-(4-(((4-(3-(2,4-dihydroxy-5-isopropylphenyl)-5-hydroxy-4H-1,2,4-triazol-4-yl)benzyl)(methyl)amino)methyl)phenoxy)ethyl)-N-methylacetamide, formic acid]	< 100
CCN(Cc1ccc(OCCCNC(=O)C[C@@H]2N=C(c3ccc(Cl)cc3)c3c(sc(C)c3C)-n3c(C)nnc32)cc1)Cc1ccc(-n2c(O)nnc2-c2cc(C(C)C)c(O)cc2O)cc1 [Compound 100, (S)-2-(4-(4-chlorophenyl)-2,3,9-trimethyl-6H-thieno[3,2-f][1,2,4]triazolo[4,3-a][1,4]diazepin-6-yl)-N-(3-(4-(((4-(3-(2,4-dihydroxy-5-isopropylphenyl)-5-hydroxy-4H-1,2,4-triazol-4-yl)benzyl)(ethyl)amino)methyl)phenoxy)propyl)acetamide, formic acid]	< 100
Cc1sc2c(c1C)C(c1ccc(Cl)cc1)=N[C@@H](CC(=O)N(C)CCOc1ccc(CN(C)Cc3ccc(-n4c(C(=O)NCC(F)(F)F)nnc4-c4cc(C(C)C)c(O)cc4O)cc3)cc1)c1nnc(C)n1-2 [Compound 101, (S)-4-(4-(((4-(2-(2-(4-(4-chlorophenyl)-2,3,9-trimethyl-6H-thieno[3,2-f][1,2,4]triazolo[4,3-a][1,4]diazepin-6-yl)-N-methylacetamido)ethoxy)benzyl)(methyl)amino)methyl)phenyl)-5-(2,4-dihydroxy-5-isopropylphenyl)-N-(2,2,2-trifluoroethyl)-4H-1,2,4-triazole-3-carboxamide, formic acid]	< 100
CCN(Cc1ccc(OCCCNC(=O)C[C@@H]2N=C(c3ccc(Cl)cc3)c3c(sc(C)c3C)-n3c(C)nnc32)cc1)Cc1ccc(-n2c(C(=O)NCC(F)(F)F)nnc2-c2cc(C(C)C)c(O)cc2O)cc1 [Compound 102, (S)-4-(4-(((4-(3-(2-(4-(4-chlorophenyl)-2,3,9-trimethyl-6H-thieno[3,2-f][1,2,4]triazolo[4,3-a][1,4]diazepin-6-yl)acetamido)propoxy)benzyl)(ethyl)amino)methyl)phenyl)-5-(2,4-dihydroxy-5-isopropylphenyl)-N-(2,2,2-trifluoroethyl)-4H-1,2,4-triazole-3-carboxamide, trifluoroacetic acid]	< 100
Cc1sc2c(c1C)C(c1ccc(Cl)cc1)=N[C@@H](CC(=O)N1CCC(CN3CCN(Cc4ccc(-n5c(O)nnc5-c5cc(C(C)C)c(O)cc5O)cc4)CC3)CC1)c1nnc(C)n1-2 [Compound 103, (S)-2-(4-(4-chlorophenyl)-2,3,9-trimethyl-6H-thieno[3,2-f][1,2,4]triazolo[4,3-a][1,4]diazepin-6-yl)-1-(4-((4-(4-(3-(2,4-dihydroxy-5-isopropylphenyl)-5-hydroxy-4H-1,2,4-triazol-4-yl)benzyl)piperazin-1-yl)methyl)piperidin-1-yl)ethan-1-one acetate]	< 100
